Earlier results as cited in patent publication US20100234288A1, “SUSTAINED RELEASE PHARMACEUTICAL COMPOSITION ON THE BASIS OF RELEASE SYSTEM COMPRISING AN ACID-SOLUBLE POLYMER AND A pH-DEPENDENT POLYMER” (PANACEA BIOTEC LTD, priority 2006, published 2010).

time to reach peak plasma concentrations (after oral administration): 6 to 8 h | effect of food on absorption (presence of food, gastrointestinal absorption): doubles the absorption
SMILES: O=C1Cc2cc(CCN3CCN(c4nsc5ccccc45)CC3)c(Cl)cc2N1 [Ziprasidone, 5-[2-[4-(1,2-benzisothiazol-3-yl)-1-piperazinyl]ethyl]-6-chloro-1,3-dihydro-2H-indol-2-one]
